Data published in patent US12257237B2 (priority 2017, dated 2025).
Values joined by “and” are separate entries in the source; they are usually repeats but may differ in a detail not shown here. Identical values can stand only once.

System: TC-71 Ewing sarcoma
Assay: Antitumour activity in TC-71 Ewing sarcoma xenograft model
Format: in vivo, Athymic nude mice
Settings: for optimal T/C: day 21; for mice still in CR at the end of the experiment: after second cycle
Description: Experiments were performed with female Athymic nude mice, 9-10 weeks old obtained from Harlan Laboratories (Udine, Italy). They were maintained under Specific Pathogen Free conditions with constant temperature and humidity, according to the institutional guidelines.
Tumour growth mice was monitored two/three times a week (depending on tumour growth rate, to avoid unnecessary stress to the animals) by Vernier caliper. Mice were sacrificed when tumour reached a mean weight of 2±0.5 gr. The antitumour activity will be expressed as T/C %, where T and C were the mean tumour weight of treated and control groups, respectively. Mice were monitored daily and weighted at least two times a week. Tolerability was evaluated on the basis of body weight loss (BWL) and clinical observation.
Statistical analysis was performed with GraphPad Prism version 6.01 software (GraphPad software, Inc., La Jolla, CA, USA). ANOVA test was performed to evaluate if there were statistically significant differences between treated and control groups.
5×10^6 TC-71 cells were inoculated subcutaneously in the right flank of mice. The growing tumour masses were measured with the aid of a Vernier caliper, and the tumour weights (1 mm^3=1 mg) were calculated by the formula: length×(width) 2/2. When tumour load achieved about 100 mg, mice were randomized into the experimental groups and treatment started.

[1] = EDO80: 80 mg/kg i.v. single dose, day 9 from inoculum
[2] = EDO80: 80 mg/kg i.v. single dose, day 11 from inoculum
[3] = EDO80: 80 mg/kg i.v. single dose, day 14 from inoculum
[4] = EDO80: 80 mg/kg i.v. single dose, day 16 from inoculum
[5] = EDO80: 80 mg/kg i.v. single dose, day 18 from inoculum
[6] = EDO80: 80 mg/kg i.v. single dose, day 21 from inoculum
[7] = EDO80: 80 mg/kg i.v. single dose, day 23 from inoculum
[8] = EDO80: 80 mg/kg i.v. single dose, day 25 from inoculum
[9] = EDO80: 80 mg/kg i.v. single dose, day 28 from inoculum
[10] = EDO80: 80 mg/kg i.v. single dose, day 30 from inoculum
[11] = EDO80: 80 mg/kg i.v. single dose, day 32 from inoculum
[12] = EDO80: 80 mg/kg i.v. single dose, day 35 from inoculum
[13] = EDO80: 80 mg/kg i.v. single dose, day 38 from inoculum
[14] = EDO80: 80 mg/kg i.v. single dose, day 42 from inoculum
[15] = EDO80: 80 mg/kg i.v. single dose, day 45 from inoculum
[16] = EDO80: 80 mg/kg i.v. single dose, day 49 from inoculum

## Cn1c(CCCCCCC(=O)NO)nc2cc(N(CCCl)CCCl)ccc21 [EDO-S101, 7-(5-(bis(2-chloroethyl)amino)-1-methyl-1H-benzo[d]imidazol-2-yl)-N-hydroxyheptanamide]
40 mg/kg i.v. q7dx3
  optimal T/C: 24%
40 mg/kg q7dx3
  tumour regression: no tumour regression in tumour volume was observed
60 mg/kg
  effect of a second cycle of treatments on tumour re-growth: further delayed tumour re-growth without being able to arrest it
60 mg/kg group
  complete regressions (CR): 3 out of 8
  tumour regression: sustained tumour regressions in all of the treated mice
  mice still in CR at the end of the experiment: two
60 mg/kg i.v. q7dx3
  optimal T/C: 1%
80 mg/kg
  effect of a second cycle of treatments on tumour re-growth: further delayed tumour re-growth without being able to arrest it
80 mg/kg group
  complete regressions (CR): 4 out of 8
  tumour regression: sustained tumour regressions in all of the treated mice
  mice still in CR at the end of the experiment: one
80 mg/kg i.v. single dose
  optimal T/C: 0.5%
EDO40: 40 mg/kg i.v. q7dx3, day 9 from inoculum
  TC-71 tumour weight, mean: 103.5 mg
EDO40: 40 mg/kg i.v. q7dx3, day 11 from inoculum
  TC-71 tumour weight, mean: 180.4 mg
EDO40: 40 mg/kg i.v. q7dx3, day 14 from inoculum
  TC-71 tumour weight, mean: 180.6 mg
EDO40: 40 mg/kg i.v. q7dx3, day 16 from inoculum
  TC-71 tumour weight, mean: 236.4 mg
EDO40: 40 mg/kg i.v. q7dx3, day 18 from inoculum
  TC-71 tumour weight, mean: 319.3 mg
EDO40: 40 mg/kg i.v. q7dx3, day 21 from inoculum
  TC-71 tumour weight, mean: 348.4 mg
EDO40: 40 mg/kg i.v. q7dx3, day 23 from inoculum
  TC-71 tumour weight, mean: 514.5 mg
EDO40: 40 mg/kg i.v. q7dx3, day 25 from inoculum
  TC-71 tumour weight, mean: 548.0 mg
EDO40: 40 mg/kg i.v. q7dx3, day 28 from inoculum
  TC-71 tumour weight, mean: 733.8 mg
EDO40: 40 mg/kg i.v. q7dx3, day 30 from inoculum
  TC-71 tumour weight, mean: 1055.5 mg
EDO40: 40 mg/kg i.v. q7dx3, day 32 from inoculum
  TC-71 tumour weight, mean: 1376.1 mg
EDO60: 60 mg/kg i.v. q7dx3, day 9 from inoculum
  TC-71 tumour weight, mean: 106.1 mg
EDO60: 60 mg/kg i.v. q7dx3, day 11 from inoculum
  TC-71 tumour weight, mean: 130.4 mg
EDO60: 60 mg/kg i.v. q7dx3, day 14 from inoculum
  TC-71 tumour weight, mean: 76.1 mg
EDO60: 60 mg/kg i.v. q7dx3, day 16 from inoculum
  TC-71 tumour weight, mean: 39.2 mg
EDO60: 60 mg/kg i.v. q7dx3, day 18 from inoculum
  TC-71 tumour weight, mean: 24.2 mg
EDO60: 60 mg/kg i.v. q7dx3, day 21 from inoculum
  TC-71 tumour weight, mean: 14.1 mg
EDO60: 60 mg/kg i.v. q7dx3, day 23 from inoculum
  TC-71 tumour weight, mean: 19.1 mg
EDO60: 60 mg/kg i.v. q7dx3, day 25 from inoculum
  TC-71 tumour weight, mean: 23.2 mg
EDO60: 60 mg/kg i.v. q7dx3, day 28 from inoculum
  TC-71 tumour weight, mean: 22.9 mg
EDO60: 60 mg/kg i.v. q7dx3, day 30 from inoculum
  TC-71 tumour weight, mean: 43.7 mg
EDO60: 60 mg/kg i.v. q7dx3, day 32 from inoculum
  TC-71 tumour weight, mean: 119.4 mg
EDO60: 60 mg/kg i.v. q7dx3, day 35 from inoculum
  TC-71 tumour weight, mean: 155.1 mg
EDO60: 60 mg/kg i.v. q7dx3, day 38 from inoculum
  TC-71 tumour weight, mean: 205.8 mg
EDO60: 60 mg/kg i.v. q7dx3, day 42 from inoculum
  TC-71 tumour weight, mean: 396.7 mg
EDO60: 60 mg/kg i.v. q7dx3, day 45 from inoculum
  TC-71 tumour weight, mean: 601.3 mg
EDO60: 60 mg/kg i.v. q7dx3, day 49 from inoculum
  TC-71 tumour weight, mean: 642.0 mg
EDO60: 60 mg/kg i.v. q7dx3, day 53 from inoculum
  TC-71 tumour weight, mean: 906.2 mg
EDO60: 60 mg/kg i.v. q7dx3, day 56 from inoculum
  TC-71 tumour weight, mean: 1549.1 mg
[1]
  TC-71 tumour weight, individual mice: 222.4 mg and 133.9 mg and 113.7 mg and 97.0 mg and 83.4 mg and 80.5 mg and 57.3 mg and 45.5 mg
  TC-71 tumour weight, mean: 104.2 mg
[2]
  TC-71 tumour weight, individual mice: 369.7 mg and 200.9 mg and 133.4 mg and 118.7 mg and 55.8 mg and 65.3 mg and 49.8 mg and 45.0 mg
  TC-71 tumour weight, mean: 129.8 mg
[3]
  TC-71 tumour weight, individual mice: 209.5 mg and 68.4 mg and 34.6 mg and 32.5 mg and 24.2 mg and 15.6 mg and 17.0 mg
  TC-71 tumour weight, mean: 51.7 mg
[4]
  TC-71 tumour weight, individual mice: 124.6 mg and 34.0 mg and 11.8 mg and 8.0 mg and 5.9 mg and 3.2 mg and 6.8 mg
  TC-71 tumour weight, mean: 25.6 mg
[5]
  TC-71 tumour weight, individual mice: 68.6 mg and 8.3 mg and 7.4 mg and 3.1 mg and 4.3 mg and 7.1 mg and 2.3 mg and 4.9 mg
  TC-71 tumour weight, mean: 13.2 mg
[6]
  TC-71 tumour weight, individual mice: 23.4 mg and 3.4 mg and 5.3 mg and 1.0 mg and 2.5 mg and 5.4 mg
  TC-71 tumour weight, mean: 7.3 mg
[7]
  TC-71 tumour weight, individual mice: 16.8 mg and 2.1 mg and 8.6 mg and 35.1 mg and 2.4 mg and 1.2 mg
  TC-71 tumour weight, mean: 11.0 mg
[8]
  TC-71 tumour weight, individual mice: 38.4 mg and 3.8 mg and 14.0 mg and 74.0 mg and 4.1 mg
  TC-71 tumour weight, mean: 26.9 mg
[9]
  TC-71 tumour weight, individual mice: 117.5 mg and 4.1 mg and 59.4 mg and 203.9 mg
  TC-71 tumour weight, mean: 65.7 mg
[10]
  TC-71 tumour weight, individual mice: 220.0 mg and 18.1 mg and 185.0 mg and 415.0 mg and 12.8 mg
  TC-71 tumour weight, mean: 126.3 mg
[11]
  TC-71 tumour weight, individual mice: 340.2 mg and 64.8 mg and 238.3 mg and 594.3 mg and 37.0 mg
  TC-71 tumour weight, mean: 199.8 mg
[12]
  TC-71 tumour weight, individual mice: 319.1 mg and 49.1 mg and 343.5 mg and 692.9 mg and 34.3 mg
  TC-71 tumour weight, mean: 225.9 mg
[13]
  TC-71 tumour weight, individual mice: 239.8 mg and 32.6 mg and 310.8 mg and 670.0 mg and 56.6 mg
  TC-71 tumour weight, mean: 204.0 mg
[14]
  TC-71 tumour weight, individual mice: 598.5 mg and 77.8 mg and 1030.8 mg and 1865.6 mg and 237.5 mg
  TC-71 tumour weight, mean: 601.9 mg
[15]
  TC-71 tumour weight, individual mice: 790.9 mg and 209.0 mg and 1741.1 mg and 2763.5 mg and 370.1 mg
  TC-71 tumour weight, mean: 944.7 mg
[16]
  TC-71 tumour weight, individual mice: 1094.7 mg and 481.3 mg and 3462.7 mg and 4619.8 mg
  TC-71 tumour weight, mean: 1657.1 mg
